Source: ChEMBL document CHEMBL6153041, “Discovery of High-Affinity SMARCA2/4 Bromodomain Ligands and Development of Potent and Exceptionally Selective SMARCA2 PROTAC Degraders” (J Med Chem, 2025)
Each block holds one compound with its values, some of them ahead of it.

Key:
[1] = molecular target: T1, von Hippel-Lindau disease tumor suppressor/SWI/SNF-related matrix-associated actin-dependent regulator of chromatin subfamily A member 2 (Homo sapiens, UniProt P51531+P40337); assay: PROTAC activity at VHL/SMARCA2 in human MV4-11 cells assessed as maximal degradation relative to control; type: cell-based
Target sequence in this assay (P51531 whole entry): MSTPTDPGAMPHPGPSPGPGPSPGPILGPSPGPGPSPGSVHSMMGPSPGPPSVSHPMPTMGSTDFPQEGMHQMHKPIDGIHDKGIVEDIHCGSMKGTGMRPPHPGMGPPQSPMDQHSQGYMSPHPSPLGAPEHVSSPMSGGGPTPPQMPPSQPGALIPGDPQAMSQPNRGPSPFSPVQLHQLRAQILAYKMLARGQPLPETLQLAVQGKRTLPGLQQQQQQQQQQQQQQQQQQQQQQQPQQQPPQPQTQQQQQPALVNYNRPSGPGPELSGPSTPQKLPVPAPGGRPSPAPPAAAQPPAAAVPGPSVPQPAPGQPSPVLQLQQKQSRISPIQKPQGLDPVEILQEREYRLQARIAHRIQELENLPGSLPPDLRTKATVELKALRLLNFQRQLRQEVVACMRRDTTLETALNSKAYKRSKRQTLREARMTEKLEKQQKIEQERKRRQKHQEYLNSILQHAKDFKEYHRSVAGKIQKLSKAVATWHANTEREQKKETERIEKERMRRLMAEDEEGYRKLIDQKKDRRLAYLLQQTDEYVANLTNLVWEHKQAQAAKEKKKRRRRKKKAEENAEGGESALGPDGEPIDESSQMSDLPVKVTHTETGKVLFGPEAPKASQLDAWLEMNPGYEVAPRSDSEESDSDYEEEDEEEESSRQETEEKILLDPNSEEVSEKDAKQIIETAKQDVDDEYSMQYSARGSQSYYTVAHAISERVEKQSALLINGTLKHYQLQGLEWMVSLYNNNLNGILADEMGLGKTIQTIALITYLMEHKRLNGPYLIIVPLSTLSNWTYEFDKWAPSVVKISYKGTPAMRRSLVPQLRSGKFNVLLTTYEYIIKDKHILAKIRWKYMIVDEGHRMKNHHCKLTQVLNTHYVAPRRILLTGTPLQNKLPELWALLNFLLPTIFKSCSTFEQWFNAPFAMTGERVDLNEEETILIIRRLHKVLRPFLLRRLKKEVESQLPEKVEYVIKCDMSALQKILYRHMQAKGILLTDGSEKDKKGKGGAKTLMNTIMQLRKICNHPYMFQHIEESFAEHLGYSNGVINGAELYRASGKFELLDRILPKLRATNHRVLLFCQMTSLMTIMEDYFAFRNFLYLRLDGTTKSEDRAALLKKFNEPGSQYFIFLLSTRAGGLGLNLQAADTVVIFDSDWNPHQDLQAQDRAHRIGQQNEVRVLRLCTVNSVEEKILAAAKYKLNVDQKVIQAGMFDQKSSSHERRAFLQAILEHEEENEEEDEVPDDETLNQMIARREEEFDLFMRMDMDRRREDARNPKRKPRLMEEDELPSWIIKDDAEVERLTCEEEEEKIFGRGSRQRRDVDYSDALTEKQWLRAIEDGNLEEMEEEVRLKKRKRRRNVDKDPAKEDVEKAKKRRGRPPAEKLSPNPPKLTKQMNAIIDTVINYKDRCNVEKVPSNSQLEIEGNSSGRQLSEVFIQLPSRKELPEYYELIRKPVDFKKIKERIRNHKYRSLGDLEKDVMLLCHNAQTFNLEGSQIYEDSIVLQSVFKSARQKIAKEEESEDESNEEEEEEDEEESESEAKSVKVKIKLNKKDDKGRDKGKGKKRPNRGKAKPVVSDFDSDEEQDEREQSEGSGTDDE
Target sequence in this assay (P40337 whole entry): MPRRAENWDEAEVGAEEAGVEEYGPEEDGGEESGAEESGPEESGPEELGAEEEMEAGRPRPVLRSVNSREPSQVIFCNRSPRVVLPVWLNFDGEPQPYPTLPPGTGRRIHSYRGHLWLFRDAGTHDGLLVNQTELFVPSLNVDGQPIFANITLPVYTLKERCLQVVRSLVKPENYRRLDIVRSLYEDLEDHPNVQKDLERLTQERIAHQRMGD

[2] = molecular target: T2, von Hippel-Lindau disease tumor suppressor/SWI/SNF-related matrix-associated actin-dependent regulator of chromatin subfamily A member 4 (Homo sapiens, UniProt P51532+P40337); assay: PROTAC activity at VHL/SMARCA4 in human MV4-11 cells assessed as maximal degradation relative to control; type: cell-based
[3] = molecular target: T2, von Hippel-Lindau disease tumor suppressor/SWI/SNF-related matrix-associated actin-dependent regulator of chromatin subfamily A member 4; assay: PROTAC activity at VHL/SMARCA4 in human MV4-11 cells assessed as degradation; type: cell-based
[4] = molecular target: T3, Protein cereblon/SWI/SNF-related matrix-associated actin-dependent regulator of chromatin subfamily A member 4 (Homo sapiens) (UniProt P51532+Q96SW2); assay: PROTAC activity at CRBN/SMARCA4 in human RKO cells assessed as degradation measured after 24 hrs by Western blot analysis; type: cell-based
[5] = molecular target: T3, Protein cereblon/SWI/SNF-related matrix-associated actin-dependent regulator of chromatin subfamily A member 4 (Homo sapiens); assay: PROTAC activity at CRBN/SMARCA4 in human RKO cells assessed as maximal degradation measured after 24 hrs by Western blot analysis relative to control; type: cell-based
[6] = tested on: HeLa; assay: Selectivity ratio, ratio of DC50 for VHL1/SMARCA4 in human genetically modified Hela cells to VHL1/SMARCA2 in human genetically modified Hela cells; type: cell-based
[7] = molecular target: T1, von Hippel-Lindau disease tumor suppressor/SWI/SNF-related matrix-associated actin-dependent regulator of chromatin subfamily A member 2; assay: PROTAC activity at VHL1/SMARCA2 in human genetically modified Hela cells assessed as degradation measured after 24 hrs incubation by Nano-Glo HiBiT Lytic Detection Assay; type: cell-based
Target sequence in this assay (P51531 whole entry): as the sequence (P51531 whole entry) above
Target sequence in this assay (P40337 whole entry): as the sequence (P40337 whole entry) above

[8] = molecular target: T2, von Hippel-Lindau disease tumor suppressor/SWI/SNF-related matrix-associated actin-dependent regulator of chromatin subfamily A member 4; assay: PROTAC activity at VHL1/SMARCA4 in human genetically modified Hela cells assessed as degradation measured after 24 hrs incubation by Nano-Glo HiBiT Lytic Detection Assay; type: cell-based
Target sequence in this assay (P51532 whole entry): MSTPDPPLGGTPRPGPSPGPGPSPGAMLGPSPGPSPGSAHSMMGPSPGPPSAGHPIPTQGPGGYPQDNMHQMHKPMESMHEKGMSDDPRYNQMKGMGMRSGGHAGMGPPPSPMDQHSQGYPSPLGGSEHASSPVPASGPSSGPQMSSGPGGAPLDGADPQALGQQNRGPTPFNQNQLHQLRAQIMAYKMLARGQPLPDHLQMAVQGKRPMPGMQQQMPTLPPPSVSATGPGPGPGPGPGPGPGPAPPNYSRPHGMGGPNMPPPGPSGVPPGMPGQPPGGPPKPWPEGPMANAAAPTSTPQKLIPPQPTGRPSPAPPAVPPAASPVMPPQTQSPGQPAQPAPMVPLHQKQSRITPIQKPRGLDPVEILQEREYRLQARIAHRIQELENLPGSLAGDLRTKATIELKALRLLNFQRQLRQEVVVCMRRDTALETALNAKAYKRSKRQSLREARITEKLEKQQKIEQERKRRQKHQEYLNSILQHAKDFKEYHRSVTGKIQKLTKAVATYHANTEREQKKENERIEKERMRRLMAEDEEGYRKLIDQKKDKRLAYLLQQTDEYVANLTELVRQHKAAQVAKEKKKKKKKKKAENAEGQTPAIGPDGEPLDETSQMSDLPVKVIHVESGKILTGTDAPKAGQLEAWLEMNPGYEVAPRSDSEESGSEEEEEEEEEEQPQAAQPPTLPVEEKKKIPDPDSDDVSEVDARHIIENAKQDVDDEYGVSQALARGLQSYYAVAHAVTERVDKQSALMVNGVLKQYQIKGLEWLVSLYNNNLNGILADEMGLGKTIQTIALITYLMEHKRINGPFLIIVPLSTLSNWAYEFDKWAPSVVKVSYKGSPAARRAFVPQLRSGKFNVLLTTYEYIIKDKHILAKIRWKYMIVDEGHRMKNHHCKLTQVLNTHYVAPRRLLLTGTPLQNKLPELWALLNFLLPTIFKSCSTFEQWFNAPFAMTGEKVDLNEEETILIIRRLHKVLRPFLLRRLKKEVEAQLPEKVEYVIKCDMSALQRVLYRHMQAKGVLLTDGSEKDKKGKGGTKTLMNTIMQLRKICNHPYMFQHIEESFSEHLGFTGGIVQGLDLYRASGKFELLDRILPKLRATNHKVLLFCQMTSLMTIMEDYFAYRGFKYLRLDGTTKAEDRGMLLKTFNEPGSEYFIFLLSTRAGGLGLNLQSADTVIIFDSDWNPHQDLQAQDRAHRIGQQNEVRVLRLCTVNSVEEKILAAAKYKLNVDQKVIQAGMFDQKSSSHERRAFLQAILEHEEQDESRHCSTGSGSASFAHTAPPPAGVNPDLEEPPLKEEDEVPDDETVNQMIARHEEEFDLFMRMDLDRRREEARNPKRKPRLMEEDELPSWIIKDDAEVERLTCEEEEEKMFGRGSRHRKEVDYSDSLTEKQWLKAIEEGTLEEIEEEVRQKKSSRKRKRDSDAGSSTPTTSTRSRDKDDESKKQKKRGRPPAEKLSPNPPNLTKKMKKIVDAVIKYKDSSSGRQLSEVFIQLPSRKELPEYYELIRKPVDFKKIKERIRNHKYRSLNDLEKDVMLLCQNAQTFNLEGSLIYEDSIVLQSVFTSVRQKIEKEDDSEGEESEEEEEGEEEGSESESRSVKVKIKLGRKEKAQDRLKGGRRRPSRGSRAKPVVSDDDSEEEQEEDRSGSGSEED
Target sequence in this assay (P40337 whole entry): as the sequence (P40337 whole entry) above

[9] = molecular target: T2, von Hippel-Lindau disease tumor suppressor/SWI/SNF-related matrix-associated actin-dependent regulator of chromatin subfamily A member 4; assay: PROTAC activity at VHL1/SMARCA4 in human genetically modified Hela cells assessed as maximal degradation measured after 24 hrs incubation by Nano-Glo HiBiT Lytic Detection Assay relative to control; type: cell-based
[10] = molecular target: T4, Protein cereblon/SWI/SNF-related matrix-associated actin-dependent regulator of chromatin subfamily A member 2 (Homo sapiens, UniProt P51531+Q96SW2); assay: PROTAC activity at CRBN/SMARCA2 in human RKO cells assessed as degradation measured after 24 hrs by Western blot analysis; type: cell-based
[11] = molecular target: T4, Protein cereblon/SWI/SNF-related matrix-associated actin-dependent regulator of chromatin subfamily A member 2; assay: PROTAC activity at CRBN/SMARCA2 in human RKO cells assessed as maximal degradation measured after 24 hrs by Western blot analysis relative to control; type: cell-based
[12] = molecular target: T1, von Hippel-Lindau disease tumor suppressor/SWI/SNF-related matrix-associated actin-dependent regulator of chromatin subfamily A member 2; assay: PROTAC activity at VHL1/SMARCA2 in human genetically modified Hela cells assessed as maximal degradation measured after 24 hrs incubation by Nano-Glo HiBiT Lytic Detection Assay relative to control; type: cell-based
[13] = tested on: von Hippel-Lindau disease tumor suppressor/SWI/SNF-related matrix-associated actin-dependent regulator of chromatin subfamily A member 4 (Homo sapiens), P51532+P40337 [UNDEFINED MUTATION]; assay: PROTAC activity at VHL1/SMARCA4 mutant in human SK-MEL-5 cells assessed as maximal degradation measured after 24 hrs incubation by Western blot analysis relative to control; type: cell-based
[14] = molecular target: T1, von Hippel-Lindau disease tumor suppressor/SWI/SNF-related matrix-associated actin-dependent regulator of chromatin subfamily A member 2; assay: PROTAC activity at VHL1/SMARCA2 in human genetically modified Hela cells assessed as maximal degradation measured after 4 hrs incubation by Nano-Glo HiBiT Lytic Detection Assay relative to control; type: cell-based
[15] = tested on: SK-MEL-5; assay: Anticancer activity against SMARCA4 deficient human SK-MEL-5 cells assessed as maximal inhibition of cell growth measured after 7 days incubation by WST-8 assay relative to control; type: functional; conditions: time 7 day
[16] = molecular target: T2, von Hippel-Lindau disease tumor suppressor/SWI/SNF-related matrix-associated actin-dependent regulator of chromatin subfamily A member 4; assay: PROTAC activity at VHL1/SMARCA4 in human genetically modified Hela cells assessed as degradation measured after 4 hrs incubation by Nano-Glo HiBiT Lytic Detection Assay; type: cell-based
Target sequence in this assay (P51532 whole entry): as the sequence (P51532 whole entry) above
Target sequence in this assay (P40337 whole entry): as the sequence (P40337 whole entry) above

[17] = molecular target: T2, von Hippel-Lindau disease tumor suppressor/SWI/SNF-related matrix-associated actin-dependent regulator of chromatin subfamily A member 4; assay: PROTAC activity at VHL1/SMARCA4 in human genetically modified Hela cells assessed as degradation measured after 8 hrs incubation by Nano-Glo HiBiT Lytic Detection Assay; type: cell-based
Target sequence in this assay (P51532 whole entry): as the sequence (P51532 whole entry) above
Target sequence in this assay (P40337 whole entry): as the sequence (P40337 whole entry) above

[18] = molecular target: T2, von Hippel-Lindau disease tumor suppressor/SWI/SNF-related matrix-associated actin-dependent regulator of chromatin subfamily A member 4; assay: PROTAC activity at VHL1/SMARCA4 mutant in human NCI-H838 cells assessed as degradation measured after 24 hrs incubation by Western blot analysis; type: cell-based
[19] = tested on: von Hippel-Lindau disease tumor suppressor/SWI/SNF-related matrix-associated actin-dependent regulator of chromatin subfamily A member 4 (Homo sapiens), P51532+P40337 [UNDEFINED MUTATION]; assay: PROTAC activity at VHL1/SMARCA4 mutant in human NCI-H838 cells assessed as maximal degradation measured after 24 hrs incubation by Western blot analysis relative to control; type: cell-based
[20] = molecular target: T1, von Hippel-Lindau disease tumor suppressor/SWI/SNF-related matrix-associated actin-dependent regulator of chromatin subfamily A member 2; assay: PROTAC activity at VHL1/SMARCA2 in human genetically modified Hela cells assessed as maximal degradation measured after 8 hrs incubation by Nano-Glo HiBiT Lytic Detection Assay relative to control; type: cell-based
[21] = molecular target: T2, von Hippel-Lindau disease tumor suppressor/SWI/SNF-related matrix-associated actin-dependent regulator of chromatin subfamily A member 4; assay: PROTAC activity at VHL1/SMARCA4 in human genetically modified Hela cells assessed as maximal degradation measured after 8 hrs incubation by Nano-Glo HiBiT Lytic Detection Assay relative to control; type: cell-based
[22] = Anticancer activity against SMARCA4 deficient human NCI-H838 cells assessed as maximal inhibition of cell growth measured after 7 days incubation by WST-8 assay relative to control; type: functional; conditions: time 7 day
[23] = molecular target: T2, von Hippel-Lindau disease tumor suppressor/SWI/SNF-related matrix-associated actin-dependent regulator of chromatin subfamily A member 4; assay: PROTAC activity at VHL1/SMARCA4 in human genetically modified Hela cells assessed as degradation measured after 48 hrs incubation by Nano-Glo HiBiT Lytic Detection Assay; type: cell-based
Target sequence in this assay (P51532 whole entry): as the sequence (P51532 whole entry) above
Target sequence in this assay (P40337 whole entry): as the sequence (P40337 whole entry) above

[24] = tested on: NCI-H1792; assay: Anticancer activity against human NCI-H1792 cells harbouring wild type SMARCA4 assessed as maximal inhibition of cell growth measured after 7 days incubation by WST-8 assay relative to control; type: functional; conditions: time 7 day
[25] = molecular target: T1, von Hippel-Lindau disease tumor suppressor/SWI/SNF-related matrix-associated actin-dependent regulator of chromatin subfamily A member 2; assay: PROTAC activity at VHL1/SMARCA2 in human NCI-H1792 cells assessed as degradation measured after 24 hrs incubation by Western blot analysis; type: cell-based
Target sequence in this assay (P51531 whole entry): as the sequence (P51531 whole entry) above
Target sequence in this assay (P40337 whole entry): as the sequence (P40337 whole entry) above

[26] = tested on: SK-MEL-28; assay: Anticancer activity against human SK-MEL-28 cells harbouring wild type SMARCA4 assessed as inhibition of cell growth measured after 7 days incubation by WST-8 assay; type: functional; conditions: SK-MEL-28, 168 h, time 7 day
[27] = Anticancer activity against SMARCA4 deficient human NCI-H838 cells assessed as inhibition of cell growth measured after 7 days incubation by WST-8 assay; type: functional; conditions: NCI-H838, 168 h, time 7 day
[28] = tested on: SK-MEL-28; assay: Anticancer activity against human SK-MEL-28 cells harbouring wild type SMARCA4 assessed as maximal inhibition of cell growth measured after 7 days incubation by WST-8 assay relative to control; type: functional; conditions: time 7 day
[29] = molecular target: T2, von Hippel-Lindau disease tumor suppressor/SWI/SNF-related matrix-associated actin-dependent regulator of chromatin subfamily A member 4; assay: PROTAC activity at VHL1/SMARCA4 mutant in human SK-MEL-5 cells assessed as degradation measured after 24 hrs incubation by Western blot analysis; type: cell-based
[30] = tested on: NCI-H1792; assay: Anticancer activity against human NCI-H1792 cells harbouring wild type SMARCA4 assessed as inhibition of cell growth measured after 7 days incubation by WST-8 assay; type: functional; conditions: NCI-H1792, 168 h, time 7 day
[31] = molecular target: T2, von Hippel-Lindau disease tumor suppressor/SWI/SNF-related matrix-associated actin-dependent regulator of chromatin subfamily A member 4; assay: PROTAC activity at VHL1/SMARCA4 in human genetically modified Hela cells assessed as maximal degradation measured after 48 hrs incubation by Nano-Glo HiBiT Lytic Detection Assay relative to control; type: cell-based
[32] = molecular target: T2, von Hippel-Lindau disease tumor suppressor/SWI/SNF-related matrix-associated actin-dependent regulator of chromatin subfamily A member 4; assay: PROTAC activity at VHL1/SMARCA4 in human NCI-H1792 cells assessed as maximal degradation measured after 24 hrs incubation by Western blot analysis relative to control; type: cell-based
[33] = molecular target: T1, von Hippel-Lindau disease tumor suppressor/SWI/SNF-related matrix-associated actin-dependent regulator of chromatin subfamily A member 2; assay: PROTAC activity at VHL1/SMARCA2 in human NCI-H1792 cells assessed as maximal degradation measured after 24 hrs incubation by Western blot analysis relative to control; type: cell-based
[34] = molecular target: T2, von Hippel-Lindau disease tumor suppressor/SWI/SNF-related matrix-associated actin-dependent regulator of chromatin subfamily A member 4; assay: PROTAC activity at VHL1/SMARCA4 in human genetically modified Hela cells assessed as maximal degradation measured after 4 hrs incubation by Nano-Glo HiBiT Lytic Detection Assay relative to control; type: cell-based
[35] = tested on: SK-MEL-5; assay: Anticancer activity against SMARCA4 deficient human SK-MEL-5 cells assessed as inhibition of cell growth measured after 7 days incubation by WST-8 assay; type: functional; conditions: SK-MEL-5, 168 h, time 7 day
[36] = molecular target: T1, von Hippel-Lindau disease tumor suppressor/SWI/SNF-related matrix-associated actin-dependent regulator of chromatin subfamily A member 2; assay: PROTAC activity at VHL1/SMARCA2 in human genetically modified Hela cells assessed as maximal degradation measured after 48 hrs incubation by Nano-Glo HiBiT Lytic Detection Assay relative to control; type: cell-based
[37] = molecular target: T1, von Hippel-Lindau disease tumor suppressor/SWI/SNF-related matrix-associated actin-dependent regulator of chromatin subfamily A member 2; assay: PROTAC activity at VHL1/SMARCA2 in human genetically modified Hela cells assessed as degradation measured after 4 hrs incubation by Nano-Glo HiBiT Lytic Detection Assay; type: cell-based
Target sequence in this assay (P51531 whole entry): as the sequence (P51531 whole entry) above
Target sequence in this assay (P40337 whole entry): as the sequence (P40337 whole entry) above

[38] = molecular target: T1, von Hippel-Lindau disease tumor suppressor/SWI/SNF-related matrix-associated actin-dependent regulator of chromatin subfamily A member 2; assay: PROTAC activity at VHL1/SMARCA2 in human genetically modified Hela cells assessed as degradation measured after 48 hrs incubation by Nano-Glo HiBiT Lytic Detection Assay; type: cell-based
Target sequence in this assay (P51531 whole entry): as the sequence (P51531 whole entry) above
Target sequence in this assay (P40337 whole entry): as the sequence (P40337 whole entry) above

[39] = molecular target: T1, von Hippel-Lindau disease tumor suppressor/SWI/SNF-related matrix-associated actin-dependent regulator of chromatin subfamily A member 2; assay: PROTAC activity at VHL1/SMARCA2 in human genetically modified Hela cells assessed as degradation measured after 8 hrs incubation by Nano-Glo HiBiT Lytic Detection Assay; type: cell-based
Target sequence in this assay (P51531 whole entry): as the sequence (P51531 whole entry) above
Target sequence in this assay (P40337 whole entry): as the sequence (P40337 whole entry) above

[40] = molecular target: T2, von Hippel-Lindau disease tumor suppressor/SWI/SNF-related matrix-associated actin-dependent regulator of chromatin subfamily A member 4; assay: PROTAC activity at VHL1/SMARCA4 in human NCI-H1792 cells assessed as degradation measured after 24 hrs incubation by Western blot analysis; type: cell-based
Target sequence in this assay (P51532 whole entry): as the sequence (P51532 whole entry) above
Target sequence in this assay (P40337 whole entry): as the sequence (P40337 whole entry) above

DC50 [1]: 11 nM
Emax [2]: > 95%
Emax [3]: > 95%
SMILES: Cc1ncsc1-c1ccc(CNC(=O)[C@@H]2C[C@@H](O)CN2C(=O)[C@@H](NC(=O)C2(F)CC2)C(C)(C)C)c(OCCOc2ccc(CN3CCN(c4cc(-c5ccccc5O)nnc4N)CC3)cc2)c1

SMILES: Cc1ncsc1-c1ccc([C@H](CC[C@H](C)CCN2CCC(c3ccc4c(c3)n(C3CCCC3)c3nc(=O)c5c(Br)cccc5n43)CC2)NC(=O)[C@@H]2C[C@@H](O)CN2C(=O)[C@@H](NC(=O)C2(F)CC2)C(C)(C)C)cc1
Emax [4]: 81%
Emax [5]: 67%
Ratio [6]: 12
DC50 [7]: 2.3 nM
DC50 [8]: 33 nM
Emax [9]: 86%
DC50 [10]: 1 nM
DC50 [11]: 32 nM
Emax [12]: 93%

SMILES: Cc1ncsc1-c1ccc([C@H](CCCCCN2CCC(c3ccc4c(c3)C3(CCCCC3)c3nc(=O)c5c(Cl)cccc5n3-4)CC2)NC(=O)[C@@H]2C[C@@H](O)CN2C(=O)[C@@H](NC(=O)C2(F)CC2)C(C)(C)C)cc1
Emax [13]: 87%
Emax [14]: 97%
Imax [15]: 96%
DC50 [16]: 38 nM
DC50 [17]: 27 nM
DC50 [18]: 76.2 nM
Emax [19]: 89%
Emax [20]: 97%
Ratio [6]: 8
Emax [21]: 96%
DC50 [7]: 0.4 nM
Imax [22]: 92%
DC50 [8]: 3.3 nM
DC50 [23]: 27 nM
Imax [24]: 52%
DC50 [25]: 1.7 nM
GI50 [26]: 24.8 nM
GI50 [27]: 10.5 nM
Imax [28]: 91%
Emax [9]: 96%
DC50 [29]: 81.1 nM
GI50 [30]: 10.5 nM
Emax [31]: 98%
Emax [32]: 99%
Emax [33]: 99%
Emax [34]: 96%
Emax [12]: 97%
GI50 [35]: 1.1 nM
Emax [36]: 99%
DC50 [37]: 10 nM
DC50 [38]: 4 nM
DC50 [39]: 6 nM
DC50 [40]: 26 nM
